In patent US20260070899A1, “N-(2-(4-CYANOTHIAZOLIDIN-3-YL)-2-OXOETHYL)-QUINOLINE-4-CARBOXAMIDES” (AstraZeneca AB, priority 2022, published 2026):
Values after ≈ are worked out from the molar mass of the structure shown.

Experiments:
[1] = Metabolic stability in human liver microsomes (HLM); assay type: in vitro ADME; conditions: n = 1 or average (n = 2-3)
Protocol: Metabolic stability in HLM was measured as described in J Comput Aided Mol Des 2015, 29, 795.

Kinetic solubility = assay type: physicochemical; conditions: kinetic from dmso stock, n = 1 or average (n = 2-4)
Protocol: Kinetic solubility was measured as described in Comput Aided Mol Des 2015, 29, 795.

hFAP (M39-A757) = target: T1, hFAP (M39-A757) (Homo sapiens, UniProt Q12884); assay: biochemical
T1 sequence (Q12884 39-757): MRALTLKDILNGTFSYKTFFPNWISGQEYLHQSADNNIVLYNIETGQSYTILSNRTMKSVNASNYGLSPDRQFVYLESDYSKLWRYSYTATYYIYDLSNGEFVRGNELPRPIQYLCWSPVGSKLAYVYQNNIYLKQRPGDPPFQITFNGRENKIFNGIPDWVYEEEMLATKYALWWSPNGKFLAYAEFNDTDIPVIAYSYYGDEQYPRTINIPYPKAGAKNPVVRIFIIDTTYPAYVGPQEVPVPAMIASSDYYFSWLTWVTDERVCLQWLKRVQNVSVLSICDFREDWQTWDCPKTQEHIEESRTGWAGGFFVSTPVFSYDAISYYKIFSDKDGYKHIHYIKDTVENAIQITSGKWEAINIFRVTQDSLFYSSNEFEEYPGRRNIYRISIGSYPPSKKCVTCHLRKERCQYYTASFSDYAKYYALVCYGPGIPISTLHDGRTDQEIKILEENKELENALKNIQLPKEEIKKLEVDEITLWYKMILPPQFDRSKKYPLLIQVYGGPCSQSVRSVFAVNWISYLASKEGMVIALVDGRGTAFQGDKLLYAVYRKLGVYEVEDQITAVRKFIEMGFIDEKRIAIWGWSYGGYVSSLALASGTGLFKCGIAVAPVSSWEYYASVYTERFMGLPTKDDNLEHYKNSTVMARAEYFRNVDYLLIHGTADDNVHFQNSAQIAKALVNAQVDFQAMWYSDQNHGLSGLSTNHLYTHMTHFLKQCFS
Protocol: Compounds were tested in a direct binding assay using 8K surface plasmon resonance biosensor (GE Healthcare) at 20° C. Immobilization of hFAP (M39-A757) on a CMD200M sensor chip (Xantec) was performed using standard amine coupling procedure in immobilization buffer (10 mM HEPES, 150 mM NaCl, 0.05% Tween20, pH 7.4). The surface was washed with 10 mM aq NaOH, 1M NaCl before being activated with EDC/NHS (GE Healthcare), followed by immobilization of hFAP (in 10 mM Acetate pH 5.0). Finally, the surface was deactivated by ethanolamine. Immobilization levels of hFAP were around 4000-6000 RU. The reference spot was treated as described, omitting the injection of hFAP. Compound concentration series were injected over the immobilized protein in increasing concentrations (2-500 nM) using single cycle kinetics in running buffer (20 mM TRIS, 150 mM NaCl, 0.05% Tween20, 1% DMSO, pH 7.4). Interaction models were fitted globally to the experimental traces, enabling determination of kon, koff and Kd.

Rat Hepatocytes (rHep) = assay: Metabolic stability in rat hepatocytes (rHep); assay type: in vitro ADME; conditions: n = 1 or geometric mean (n = 2-3)
Protocol: Metabolic stability in rat hepatocytes was measured as described in J Comput Aided Mol Des 2015, 29, 795.

[2] = target: T2, Prolyl endopeptidase, Prolyl Oligopeptidase (hPREP) (Homo sapiens, UniProt P48147); assay: biochemical
T2 sequence (P48147 1-710): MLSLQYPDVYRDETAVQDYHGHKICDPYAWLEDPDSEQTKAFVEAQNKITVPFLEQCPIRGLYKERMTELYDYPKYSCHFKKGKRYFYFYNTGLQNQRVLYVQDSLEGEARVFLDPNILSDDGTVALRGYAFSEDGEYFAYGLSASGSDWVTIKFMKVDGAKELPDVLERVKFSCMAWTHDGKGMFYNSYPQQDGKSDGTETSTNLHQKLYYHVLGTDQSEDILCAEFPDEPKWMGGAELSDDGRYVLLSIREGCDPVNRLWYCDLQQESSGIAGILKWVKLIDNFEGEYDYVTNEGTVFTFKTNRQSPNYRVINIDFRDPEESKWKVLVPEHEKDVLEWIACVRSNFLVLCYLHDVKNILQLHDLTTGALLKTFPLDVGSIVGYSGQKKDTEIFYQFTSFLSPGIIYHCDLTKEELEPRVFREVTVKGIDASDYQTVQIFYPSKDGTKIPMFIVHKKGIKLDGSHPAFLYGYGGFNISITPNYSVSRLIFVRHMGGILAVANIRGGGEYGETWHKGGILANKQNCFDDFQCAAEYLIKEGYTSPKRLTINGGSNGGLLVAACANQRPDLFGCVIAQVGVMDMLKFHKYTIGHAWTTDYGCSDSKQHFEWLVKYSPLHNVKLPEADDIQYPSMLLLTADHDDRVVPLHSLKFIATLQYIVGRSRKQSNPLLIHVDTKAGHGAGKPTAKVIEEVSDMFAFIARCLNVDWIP

hFAP = target: T3, hFAP (Homo sapiens, UniProt Q12884); assay: biochemical
T3 sequence (Q12884 38-760): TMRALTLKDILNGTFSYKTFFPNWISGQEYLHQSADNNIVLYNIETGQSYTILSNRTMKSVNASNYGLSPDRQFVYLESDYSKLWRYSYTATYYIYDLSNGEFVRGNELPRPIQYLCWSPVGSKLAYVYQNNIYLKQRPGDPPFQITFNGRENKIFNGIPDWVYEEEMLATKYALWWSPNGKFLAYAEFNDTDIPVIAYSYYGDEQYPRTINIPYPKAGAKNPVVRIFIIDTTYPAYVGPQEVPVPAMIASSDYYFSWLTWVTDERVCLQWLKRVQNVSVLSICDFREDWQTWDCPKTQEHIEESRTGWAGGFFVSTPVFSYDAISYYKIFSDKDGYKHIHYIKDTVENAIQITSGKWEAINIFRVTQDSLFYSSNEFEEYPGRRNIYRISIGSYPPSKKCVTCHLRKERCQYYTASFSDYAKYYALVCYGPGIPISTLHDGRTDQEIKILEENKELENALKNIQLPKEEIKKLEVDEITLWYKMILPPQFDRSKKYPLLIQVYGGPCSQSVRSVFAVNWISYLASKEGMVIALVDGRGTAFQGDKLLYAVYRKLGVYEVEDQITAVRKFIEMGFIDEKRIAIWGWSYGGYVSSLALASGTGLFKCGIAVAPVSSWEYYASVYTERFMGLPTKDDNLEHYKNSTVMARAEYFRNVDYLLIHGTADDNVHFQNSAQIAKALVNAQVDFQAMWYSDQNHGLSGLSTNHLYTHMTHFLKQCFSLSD
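Wherever Kd is given: surface plasmon resonance direct binding to hFAP amine-coupled on a sensor chip, rising compound concentrations by single cycle kinetics, Kd from global fit of interaction models.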

microsomal CLint [1] | solubility (Kinetic solubility) | Kd (hFAP (M39-A757)) | rHeps CLint (Rat Hepatocytes (rHep)) | IC50 [2] | IC50 (hFAP) | SMILES
> 300 µL/min/mg | 240 µM (≈ 112 µg/mL) | 0.12 nM | 27 μL/min/1E6 | 240 nM | – | CC(c1ccc2nccc(C(=O)NCC(=O)N3CSC[C@H]3C#N)c2c1)c1ccc(Cl)cn1 (mixture of isomers) [Example 48, 6-((RS)-1-(5-Chloropyridin-2-yl)ethyl)-N-(2-((R)-4-cyanothiazolidin-3-yl)-2-oxoethyl)quinoline-4-carboxamide]
46 µL/min/mg | 220 µM (≈ 95.8 µg/mL) | 0.13 nM | 24 μL/min/1E6 | 110 nM | – | Cc1cc(C(C)c2ccc3nccc(C(=O)NCC(=O)N4CSC[C@H]4C#N)c3c2)on1 (mixture of isomers) [Example 49, N-(2-((R)-4-Cyanothiazolidin-3-yl)-2-oxoethyl)-6-((RS)-1-(3-methylisoxazol-5-yl)ethyl)quinoline-4-carboxamide]
210 µL/min/mg | 120 µM (≈ 59.9 µg/mL) | 0.2 nM | 49 μL/min/1E6 | 320 nM | – | CC(c1ccnc(C(F)(F)F)c1)c1ccc2nccc(C(=O)NCC(=O)N3CSC[C@H]3C#N)c2c1 (mixture of isomers) [Example 52, N-(2-((R)-4-Cyanothiazolidin-3-yl)-2-oxoethyl)-6-((RS)-1-(2-(trifluoromethyl)pyridin-4-yl)ethyl)quinoline-4-carboxamide]
77 µL/min/mg | > 1000 µM | – | 23 μL/min/1E6 | 640 nM | – | CC1(C)CC(c2ccc3nccc(C(=O)NCC(=O)N4CSC[C@H]4C#N)c3c2)CO1 (mixture of isomers) [Example 61, N-(2-((R)-4-Cyanothiazolidin-3-yl)-2-oxoethyl)-6-(5,5-dimethyltetrahydrofuran-3-yl)quinoline-4-carboxamide]
36 µL/min/mg | 490 µM (≈ 199 µg/mL) | 0.052 nM | 5.9 μL/min/1E6 | 190 nM | – | N#C[C@@H]1CSCN1C(=O)CNC(=O)c1ccnc2ccc(OCC(F)F)cc12 [Example 2, (R)—N-(2-(4-Cyanothiazolidin-3-yl)-2-oxoethyl)-6-(2,2-difluoroethoxy)quinoline-4-carboxamide]
40 µL/min/mg | 550 µM (≈ 231 µg/mL) | – | 9.1 μL/min/1E6 | 150 nM | – | N#C[C@@H]1CSCN1C(=O)CNC(=O)c1ccnc2ccc(OC(CF)CF)cc12 [Example 7, (R)—N-(2-(4-Cyanothiazolidin-3-yl)-2-oxoethyl)-6-((1,3-difluoropropan-2-yl)oxy)quinoline-4-carboxamide]
45 µL/min/mg | 8.3 µM (≈ 3.71 µg/mL) | – | 11 μL/min/1E6 | 1200 nM | – | N#C[C@@H]1CSCN1C(=O)CNC(=O)c1ccnc2ccc(OCC3CC(F)(F)C3)cc12 [Example 8, (R)—N-(2-(4-Cyanothiazolidin-3-yl)-2-oxoethyl)-6-((3,3-difluorocyclobutyl)methoxy)quinoline-4-carboxamide]
– | – | 0.1 nM | – | 590 nM | 0.22 nM | Cc1nn(C)nc1Cc1ccc2nccc(C(=O)NCC(=O)N3CSC[C@H]3C#N)c2c1 [Example 19, (R)—N-(2-(4-Cyanothiazolidin-3-yl)-2-oxoethyl)-6-((2,5-dimethyl-2H-1,2,3-triazol-4-yl)methyl)quinoline-4-carboxamide]
– | – | 0.013 nM | – | 560 nM | 0.24 nM | N#C[C@@H]1CSCN1C(=O)CNC(=O)c1ccnc2ccc(C3=CCOCC3)cc12 [Example 22, (R)—N-(2-(4-Cyanothiazolidin-3-yl)-2-oxoethyl)-6-(3,6-dihydro-2H-pyran-4-yl)quinoline-4-carboxamide]
– | – | 1.6 nM | – | 34 nM | 0.65 nM | Cc1ccc2nccc(C(=O)NCC(=O)N3CSC[C@H]3C#N)c2c1 [Example 28, (R)—N-(2-(4-cyanothiazolidin-3-yl)-2-oxoethyl)-6-methylquinoline-4-carboxamide]
– | – | 0.34 nM | – | 180 nM | 0.21 nM | Cc1conc1Cc1ccc2nccc(C(=O)NCC(=O)N3CSC[C@H]3C#N)c2c1 [Example 38, (R)—N-(2-(4-Cyanothiazolidin-3-yl)-2-oxoethyl)-6-((4-methylisoxazol-3-yl)methyl)quinoline-4-carboxamide]
– | – | 0.18 nM | – | 530 nM | 0.34 nM | Cc1cc(C)c(Cc2ccc3nccc(C(=O)NCC(=O)N4CSC[C@H]4C#N)c3c2)cn1 [Example 39, (R)—N-(2-(4-Cyanothiazolidin-3-yl)-2-oxoethyl)-6-((4,6-dimethylpyridin-3-yl)methyl)quinoline-4-carboxamide]
– | – | 0.36 nM | – | 370 nM | 0.088 nM | Cn1ncc(Cc2ccc3nccc(C(=O)NCC(=O)N4CSC[C@H]4C#N)c3c2)n1 [Example 41, (R)—N-(2-(4-Cyanothiazolidin-3-yl)-2-oxoethyl)-6-((2-methyl-2H-1,2,3-triazol-4-yl)methyl)quinoline-4-carboxamide]
36 µL/min/mg | 190 µM (≈ 76.8 µg/mL) | – | 45 μL/min/1E6 | 6.5 nM | – | CC(F)(F)Cc1ccc2nccc(C(=O)NCC(=O)N3CSC[C@H]3C#N)c2c1 [Example 53, (R)—N-(2-(4-Cyanothiazolidin-3-yl)-2-oxoethyl)-6-(2,2-difluoropropyl)quinoline-4-carboxamide]
77 µL/min/mg | 700 µM (≈ 296 µg/mL) | – | 17 μL/min/1E6 | 64 nM | – | N#C[C@@H]1CSCN1C(=O)CNC(=O)c1ccnc2ccc(CCC(F)(F)F)cc12 [Example 58, (R)—N-(2-(4-Cyanothiazolidin-3-yl)-2-oxoethyl)-6-(3,3,3-trifluoropropyl)quinoline-4-carboxamide]
> 300 µL/min/mg | 180 µM (≈ 78 µg/mL) | – | 110 μL/min/1E6 | 290 nM | – | N#C[C@@H]1CSCN1C(=O)CNC(=O)c1ccnc2ccc(C3(C#N)CCCCC3)cc12 [Example 60, (R)-6-(1-Cyanocyclohexyl)-N-(2-(4-cyanothiazolidin-3-yl)-2-oxoethyl)quinoline-4-carboxamide]
– | – | 0.15 nM | – | 460 nM | 0.15 nM | COC1(c2ccc3nccc(C(=O)NCC(=O)N4CSC[C@H]4C#N)c3c2)CCOCC1 [Example 66, (R)—N-(2-(4-Cyanothiazolidin-3-yl)-2-oxoethyl)-6-(4-methoxy-tetrahydro-2H-pyran-4-yl)quinoline-4-carboxamide]
